Measured values taken from patent US20210315893A1 (Galapagos NV, priority 2017, published 2021).

Legend:
S1PR2 = molecular target: T1, S1PR2 (Homo sapiens, UniProt O95136); test: S1PR2 binding assay (competition with radioactively labeled S1P, SpA); conditions: membranes from stable cell line over expressing S1PR2, SpA beads; read-out: S1P2 EC50 (nM), S1PR2 binding EC50
T1 construct: expressed in transfected cells
Summary of the method: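 Competition with [3H]S1P for membranes from a stable S1PR2-overexpressing cell line, 20 μg/well, captured on PVT-WGA SPA beads, in 20 mM Tris pH 7.5, 10 mM MgCl2, 100 mM NaCl, 0.4% fatty-acid-free BSA, 1 mM Na3VO4. 2 h at room temperature, then centrifugation and scintillation counting.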

HFL-1 cells [1] = test: IL8 assay in the presence of Human Serum Albumin; conditions: HFL1, read-out: HSA IL8 EC50
Method: To evaluate the influence of plasma protein binding of S1P as well as compound, the S1P induced IL-8 levelswereevaluatedin presence of Human Serum Albumin (HSA, equivalent to 40% human serum).
Human Fetal Lung cells (HFL-1) are seeded in 96 well plates in growth medium (F12K+10% heat inactivated FBS+1% Pen/strep). […] On day three, compounds are added (10 point serial dilution, 30 μM highest concentration, 1/3 dilution, 0.3% DMSO final) and plates are incubated for 1 h at 37° C., 5% CO2. Subsequently S1P at 5 μM final concentration is added and plates are incubated for 16 to 24 h at 37° C., 5% COafter which the supernatant was collected. IL-8 levels in the supernatant are determined with the IL-8 ELISA of R&D systems.

[2] = molecular target: T2, human GPCR sphingosine 1-phosphate receptor 2 (Homo sapiens, UniProt O95136); test: S1PR2 antagonist Ca2+ flux assay; format: cell-based; conditions: antagonist mode, CHO-S1PR2 cells, S1P at EC80, Ca2+ fluorescence; read-out: S1P2 EC50 (nM), S1P2 antagonist EC50
T2 construct: host or cells: CHO
T2 sequence (O95136 whole entry): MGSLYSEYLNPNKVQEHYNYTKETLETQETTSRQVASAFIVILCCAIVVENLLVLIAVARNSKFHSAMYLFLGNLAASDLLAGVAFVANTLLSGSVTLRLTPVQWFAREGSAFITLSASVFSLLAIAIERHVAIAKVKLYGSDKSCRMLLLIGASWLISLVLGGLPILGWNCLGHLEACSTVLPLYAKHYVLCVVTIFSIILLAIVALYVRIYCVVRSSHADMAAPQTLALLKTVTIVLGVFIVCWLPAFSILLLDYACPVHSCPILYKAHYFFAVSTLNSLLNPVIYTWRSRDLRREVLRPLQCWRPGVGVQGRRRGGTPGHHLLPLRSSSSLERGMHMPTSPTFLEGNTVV
Summary of the method: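 CHO cells stably expressing human S1PR2, serum-starved 1 h, Fluo8-loaded; compound-evoked Ca2+ fluorescence read 3 min (agonist mode), then after 15 min S1P at EC80 added and read 3 min (antagonist mode). Max/baseline fluorescence ratios normalised to vehicle and S1P EC100 or EC50 controls; EC50 derived.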

HFL-1 cells [3] = test: IL-8 production assay (S1P induced IL-8); format: cell-based; conditions: Homo sapiens, HFL1; S1P (1 μM) induced IL-8 in HFL-1 cells, starvation medium without HSA; read-out: IL8 EC50
Method: This assay is designed to test inhibitory activity of compounds on S1P induced IL-8 on HFL-1 cells, ahuman fetal lung fibroblast cell line.
Human Fetal Lung cells (HFL-1) are seeded in 96 well plates in growth medium (F12K+10% heat inactivated FBS+l1% Pen/strep). After overnight incubation at 37° C., […] cells are refreshed with starvation medium without HSA (F12K+1% FBS+1% Pen/strep). On day three, compounds are added (10 point serial dilution, 30 μM highest concentration, 1/3 dilution, 0.3% DMSO final) and plates are incubated for one h at 37° C., 5% CO2. Subsequently S1P at 1 μM final concentration is added and plates are incubated for 16 to24 h at 37° C., […] after which the supermatant was collected. IL-8 levels in the supernatant are determined with the IL-8 ELISA of R&D systems.

T1 sequence (O95136 whole entry): as above

Row | Compound | EC50 (S1PR2) [nM] | EC50 (HFL-1 cells [1]) [nM] | EC50 [2] [nM] | EC50 (HFL-1 cells [3]) [nM]
1 | CN(CC1CCCO1)C(=O)Cn1nc(Cc2nc3cc(OCC(F)F)c(C#N)cc3[nH]2)c2ccccc2c1=O (centres unmarked) [Compound 180, 2-[4-[[6-cyano-5-(2,2-difluoroethoxy)-1H-benzimidazol-2-yl)methyl]-1-oxo-phthalazin-2-yl]-N-methyl-N-(THF-2-ylmethyl)acetamide] | 93.9 | 67 | 21.1 | 28.3
2 | N#CCCN(C(=O)Cn1nc(Cc2nc3cc(OCC(F)F)c(C#N)cc3[nH]2)c2ccccc2c1=O)C1CC1 [Compound 181, 2-[4-[[6-cyano-5-(2,2-difluoroethoxy)-1H-benzimidazol-2-yl]methyl]-1-oxo-phthalazin-2-yl]-N-(2-cyanoethyl)-N-cyclopropyl-acetamide] | 297 | 906 | 95.8 | 544
3 | COC(C)(C)CNC(=O)Cn1nc(Cc2nc3cc(OCC(F)F)c(C#N)cc3[nH]2)c2ccccc2c1=O [Compound 182, 2-[4-[[6-cyano-5-(2,2-difluoroethoxy)-1H-benzimidazol-2-yl]methyl]-1-oxo-phthalazin-2-yl]-N-(2-methoxy-2-methyl-propyl)acetamide] | 53.4 | 54.7 | 17.3 | 9.66
4 | COCCN(C)C(=O)Cn1nc(Cc2nc3cc(OCC(F)F)c(C#N)cc3[nH]2)c2ccccc2c1=O [Compound 183, 2-[4-[[6-cyano-5-(2,2-difluoroethoxy)-1H-benzimidazol-2-yl]methyl]-1-oxo-phthalazin-2-yl]-N-(2-methoxyethyl)-N-methyl-acetamide] | 307 | 430 | 76 | 196
5 | N#Cc1cc2[nH]c(Cc3nn(CC(=O)NC4CCCOC4)c(=O)c4ccccc34)nc2cc1OCC(F)F (centres unmarked) [Compound 184, 2-[4-[[6-cyano-5-(2,2-difluoroethoxy)-1H-benzimidazol-2-yl)methyl]-1-oxo-phthalazin-2-yl]-N-tetrahydropyran-3-yl-acetamide] | 94.3 | 82.3 | 25.2 | 23.8
6 | N#Cc1cc2nc(Cc3nn(CC(=O)N4CCC(F)(F)CC4)c(=O)c4c3CCCC4)[nH]c2cc1OCC(F)F [Compound 185, 6-(2,2-difluoroethoxy)-2-[[3-[2-(4,4-difluoro-1-piperidyl)-2-oxo-ethyl]-4-oxo-5,6,7,8-tetrahydrophthalazin-1-yl]methyl]-1H-benzimidazole-5-carbonitrile] | 166 | 302 | 30.4 | 93.7
7 | COC1CCN(C(=O)Cn2nc(Cc3nc4cc(C#N)c(OCC(F)F)cc4[nH]3)c3ccccc3c2=O)C1 (centres unmarked) [Compound 186, 6-(2,2-difluoroethoxy)-2-[[3-[2-(3-methoxypyrrolidin-1-yl)-2-oxo-ethyl]-4-oxo-phthalazin-1-yl]methyl]-1H-benzimidazole-5-carbonitrile] | 141 | 80.9 | 25 | 34.8
8 | COCCNC(=O)Cn1nc(Cc2nc3cc(C#N)c(OCC(F)F)cc3[nH]2)c2ccccc2c1=O [Compound 187, 2-[4-[[5-cyano-6-(2,2-difluoroethoxy)-1H-benzimidazol-2-yl]methyl]-1-oxo-phthalazin-2-yl]-N-(2-methoxyethyl)acetamide] | 165 | 80.4 | 50.2 | 74.5
9 | N#Cc1cc2nc(Cc3nn(CC(=O)N4CCC(F)(F)CC4)c(=O)c4ccccc34)[nH]c2cc1OCC(F)F [Compound 188, 6-(2,2-difluoroethoxy)-2-[[3-[2-(4,4-difluoro-1-piperidyl)-2-oxo-ethyl]-4-oxo-phthalazin-1-yl]methyl]-1H-benzimidazole-5-carbonitrile] | 380 | 663 | 63.4 | 258
10 | CC(O)(CNC(=O)Cn1nc(Cc2nc3cc(C#N)c(OCC(F)F)cc3[nH]2)c2ccccc2c1=O)C(F)(F)F (centres unmarked) [Compound 190, 2-[4-[[5-cyano-6-(2,2-difluoroethoxy)-1H-benzimidazol-2-yl]methyl]-1-oxo-phthalazin-2-yl]-N-(3,3,3-trifluoro-2-hydroxy-2-methylpropyl)acetamide] | 63.6 | 38 | 15 | 20.1
11 | N#Cc1cc2nc(Cc3nn(CC(=O)NC[C@H](O)C(F)(F)F)c(=O)c4ccccc34)[nH]c2cc1OCC(F)F [Compound 191, 2-[4-[[5-cyano-6-(2,2-difluoroethoxy)-1H-benzimidazol-2-yl]methyl]-1-oxo-phthalazin-2-yl]-N-[(2S)-3,3,3-trifluoro-2-hydroxypropyl]acetamide] | 66.4 | 99.9 | 11.8 | 36.6
12 | COCC(O)CNC(=O)Cn1nc(Cc2nc3cc(C#N)c(OCC(F)F)cc3[nH]2)c2ccccc2c1=O (centres unmarked) [Compound 192, 2-[4-[[5-cyano-6-(2,2-difluoroethoxy)-1H-benzimidazol-2-yl]methyl]-1-oxo-phthalazin-2-yl]-N-(2-hydroxy-3-methoxypropyl)acetamide] | 190 | 666 | 41 | 156
13 | N#Cc1cc2nc(Cc3nn(CC(=O)N4CCC(O)CC4)c(=O)c4ccccc34)[nH]c2cc1OCC(F)F [Compound 193, 6-(2,2-difluoroethoxy)-2-[[3-[2-(4-hydroxy-1-piperidyl)-2-oxo-ethyl]-4-oxo-phthalazin-1-yl]methyl]-1H-benzimidazole-5-carbonitrile] | 346 | 183 | 36.5 | 49.7
14 | N#Cc1cc2nc(Cc3nn(CC(=O)N(CCO)CC(F)F)c(=O)c4ccccc34)[nH]c2cc1OCC(F)F [Compound 194, 2-[4-[[5-cyano-6-(2,2-difluoroethoxy)-1H-benzimidazol-2-yl]methyl]-1-oxo-phthalazin-2-yl]-N-(2,2-difluoroethyl)-N-(2-hydroxyethyl)acetamide] | 268 | 453 | 41.9 | 186
15 | CC(C#N)CN(C)C(=O)Cn1nc(Cc2nc3cc(C#N)c(OCC(F)F)cc3[nH]2)c2ccccc2c1=O (centres unmarked) [Compound 195, 2-[4-[[5-cyano-6-(2,2-difluoroethoxy)-1H-benzimidazol-2-yl]methyl]-1-oxo-phthalazin-2-yl]-N-(2-cyanopropyl)-N-methyl-acetamide] | 197 | 171 | 31.9 | 27.8
16 | CN(CC1CC1)C(=O)Cn1nc(Cc2nc3cc(C#N)c(OCC(F)F)cc3[nH]2)c2ccccc2c1=O [Compound 196, 2-[4-[[5-cyano-6-(2,2-difluoroethoxy)-1H-benzimidazol-2-yl]methyl]-1-oxo-phthalazin-2-yl]-N-(cyclopropylmethyl)-N-methyl-acetamide] | 83.1 | 445 | 15.7 | 27.2
17 | CN(CC(F)F)C(=O)Cn1nc(Cc2nc3cc(C#N)c(OCC(F)F)cc3[nH]2)c2ccccc2c1=O [Compound 197, 2-[4-[[5-cyano-6-(2,2-difluoroethoxy)-1H-benzimidazol-2-yl]methyl]-1-oxo-phthalazin-2-yl]-N-(2,2-difluoroethyl)-N-methyl-acetamide] | 80.3 | 634 | 32.5 | 139
18 | N#Cc1cc2nc(Cc3nn(CC(=O)NCC4(CO)COC4)c(=O)c4ccccc34)[nH]c2cc1OCC(F)F [Compound 199, 2-[4-[[5-cyano-6-(2,2-difluoroethoxy)-1H-benzimidazol-2-yl)methyl]-1-oxo-phthalazin-2-yl]-N-[[3-(hydroxymethyl)oxetan-3-yl]methyl]acetamide] | 173 | 276 | 54.6 | 80.3
19 | N#Cc1cc2nc(Cc3nn(CC(=O)N4CCOCC4)c(=O)c4c3CCCC4)[nH]c2cc1OCC(F)(F)F [Compound 200, 2-[[3-(2-morpholino-2-oxo-ethyl)-4-oxo-5,6,7,8-tetrahydrophthalazin-1-yl]methyl]-6-(2,2,2-trifluoroethoxy)-1H-benzimidazole-5-carbonitrile] | 93.7 | 103 | 8.77 | 10.6
20 | CC(C)(C)CNC(=O)Cn1nc(Cc2nc3cc(OCC(F)F)c(C#N)cc3[nH]2)c2ccccc2c1=O [Compound 202, 2-[4-[[6-cyano-5-(2,2-difluoroethoxy)-1H-benzimidazol-2-yl]methyl)-1-oxo-phthalazin-2-yl]-N-(2,2-dimethylpropyl)acetamide] | 48 | 479 | 6.86 | 13.4
